In ChEMBL document CHEMBL1134819, “Design and synthesis of potent and selective inhibitors of integrin VLA-4” (Bioorg Med Chem Lett, 2001):
Values belong to the molecule of their own block, whether it stands above or below them.

What was measured:
Integrin alpha-4/beta-1 [1] = molecular target: T1, Integrin alpha-4/beta-1 (Homo sapiens, UniProt P05556+P13612); assay: In vitro Very late antigen 4 cell adhesion inhibitory activity measured by binding of fluorescently labeled Ramos cells to immobilized VCAM-1.; type: cell-based
T1 sequence (P05556 whole entry, one chain of several): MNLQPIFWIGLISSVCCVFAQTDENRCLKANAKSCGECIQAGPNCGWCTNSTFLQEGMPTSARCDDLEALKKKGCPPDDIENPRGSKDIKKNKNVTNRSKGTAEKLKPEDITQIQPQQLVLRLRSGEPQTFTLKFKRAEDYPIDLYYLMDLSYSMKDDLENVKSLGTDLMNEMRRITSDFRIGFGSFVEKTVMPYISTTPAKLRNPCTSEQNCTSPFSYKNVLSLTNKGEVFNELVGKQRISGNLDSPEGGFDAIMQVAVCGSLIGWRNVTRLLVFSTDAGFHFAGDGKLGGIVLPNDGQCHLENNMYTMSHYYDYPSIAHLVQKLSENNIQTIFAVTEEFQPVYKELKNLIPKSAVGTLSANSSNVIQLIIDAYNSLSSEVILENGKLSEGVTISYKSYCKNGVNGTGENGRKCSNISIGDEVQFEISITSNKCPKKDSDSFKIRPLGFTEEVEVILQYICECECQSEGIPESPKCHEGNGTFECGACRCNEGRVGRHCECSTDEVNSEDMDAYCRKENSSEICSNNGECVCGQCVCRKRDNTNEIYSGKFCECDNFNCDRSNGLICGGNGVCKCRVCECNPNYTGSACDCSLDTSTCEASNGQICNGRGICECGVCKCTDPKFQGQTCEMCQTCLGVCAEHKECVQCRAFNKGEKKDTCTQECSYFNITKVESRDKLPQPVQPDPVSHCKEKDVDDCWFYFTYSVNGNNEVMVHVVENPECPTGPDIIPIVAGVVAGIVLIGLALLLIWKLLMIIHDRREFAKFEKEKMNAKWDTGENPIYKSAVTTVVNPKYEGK

[2] = Inhibition of fluorescent Ramos cell adhesion to ICAM-1 by mouse Mac-1 integrin; type: functional, cell-based
Integrin alpha-5/beta-1 = Integrin alpha-5/beta-1 (Homo sapiens, UniProt P05556+P08648); assay: Inhibition of fluorescent Ramos cell adhesion to fibronectin by Very late antigen 5 (VLA-5); type: functional, cell-based
Chain of Integrin alpha-5/beta-1 (P05556 21-798 limits assumed): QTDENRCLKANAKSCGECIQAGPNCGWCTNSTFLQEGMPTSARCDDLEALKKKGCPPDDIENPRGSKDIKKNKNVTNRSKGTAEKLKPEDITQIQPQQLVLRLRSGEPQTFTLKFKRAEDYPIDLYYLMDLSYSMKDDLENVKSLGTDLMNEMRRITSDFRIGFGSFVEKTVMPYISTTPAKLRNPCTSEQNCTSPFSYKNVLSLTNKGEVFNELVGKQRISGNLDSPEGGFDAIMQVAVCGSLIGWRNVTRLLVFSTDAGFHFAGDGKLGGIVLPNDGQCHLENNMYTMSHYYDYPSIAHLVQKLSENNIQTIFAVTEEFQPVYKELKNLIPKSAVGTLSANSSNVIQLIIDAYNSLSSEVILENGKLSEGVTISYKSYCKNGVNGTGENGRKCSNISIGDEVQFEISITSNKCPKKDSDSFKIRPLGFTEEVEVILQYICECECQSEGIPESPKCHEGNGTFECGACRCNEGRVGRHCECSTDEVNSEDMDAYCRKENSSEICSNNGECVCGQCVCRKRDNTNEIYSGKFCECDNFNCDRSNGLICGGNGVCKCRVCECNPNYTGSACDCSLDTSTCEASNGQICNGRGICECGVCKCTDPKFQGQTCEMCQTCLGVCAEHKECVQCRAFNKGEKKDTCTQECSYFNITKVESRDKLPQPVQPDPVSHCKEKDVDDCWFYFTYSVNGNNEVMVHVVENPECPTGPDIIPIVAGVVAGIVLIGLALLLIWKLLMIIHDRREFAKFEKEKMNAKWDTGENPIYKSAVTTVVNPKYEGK
Chain of Integrin alpha-5/beta-1 (P08648 42-894 limits assumed): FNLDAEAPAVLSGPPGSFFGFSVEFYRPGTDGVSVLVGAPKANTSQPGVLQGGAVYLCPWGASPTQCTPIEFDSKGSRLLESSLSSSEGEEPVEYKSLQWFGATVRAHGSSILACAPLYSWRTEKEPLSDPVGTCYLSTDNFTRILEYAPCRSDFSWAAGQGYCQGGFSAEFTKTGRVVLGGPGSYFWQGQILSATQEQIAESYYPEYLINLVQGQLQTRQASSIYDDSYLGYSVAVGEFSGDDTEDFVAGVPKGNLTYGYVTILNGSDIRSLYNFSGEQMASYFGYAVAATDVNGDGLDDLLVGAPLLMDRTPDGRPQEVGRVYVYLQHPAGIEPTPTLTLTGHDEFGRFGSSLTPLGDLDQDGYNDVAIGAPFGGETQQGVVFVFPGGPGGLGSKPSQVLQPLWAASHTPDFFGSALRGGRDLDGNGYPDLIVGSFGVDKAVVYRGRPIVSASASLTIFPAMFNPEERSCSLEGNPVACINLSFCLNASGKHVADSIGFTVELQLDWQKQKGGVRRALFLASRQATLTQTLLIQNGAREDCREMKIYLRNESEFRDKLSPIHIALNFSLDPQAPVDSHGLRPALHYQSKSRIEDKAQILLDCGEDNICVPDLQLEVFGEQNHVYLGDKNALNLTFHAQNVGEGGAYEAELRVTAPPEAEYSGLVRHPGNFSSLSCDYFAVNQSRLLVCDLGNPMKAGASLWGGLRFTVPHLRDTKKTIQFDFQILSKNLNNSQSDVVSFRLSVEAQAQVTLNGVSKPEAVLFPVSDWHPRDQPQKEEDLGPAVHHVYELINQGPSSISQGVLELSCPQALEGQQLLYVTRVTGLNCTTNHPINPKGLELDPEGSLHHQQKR
Chain of Integrin alpha-5/beta-1 (P08648 895-1049 limits assumed): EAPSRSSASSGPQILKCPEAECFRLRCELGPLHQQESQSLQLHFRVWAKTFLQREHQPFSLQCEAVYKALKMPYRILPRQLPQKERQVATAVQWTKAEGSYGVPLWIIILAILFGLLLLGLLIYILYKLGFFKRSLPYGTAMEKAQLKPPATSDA

Integrin alpha-4/beta-1 [3] = molecular target: T1, Integrin alpha-4/beta-1; assay: Inhibition of fluorescent Ramos cell adhesion to fibronectin by Very late antigen 4 (VLA-4); type: cell-based
Integrin alpha-4/beta-7 [4] = molecular target: T2, Integrin alpha-4/beta-7 (Homo sapiens, UniProt P13612+P26010); assay: (§1) Inhibition of fluorescent Ramos cell adhesion to VCAM-1 by alpha4-beta7 integrin; type: protein-complex assay
T2 sequence (P13612 whole entry): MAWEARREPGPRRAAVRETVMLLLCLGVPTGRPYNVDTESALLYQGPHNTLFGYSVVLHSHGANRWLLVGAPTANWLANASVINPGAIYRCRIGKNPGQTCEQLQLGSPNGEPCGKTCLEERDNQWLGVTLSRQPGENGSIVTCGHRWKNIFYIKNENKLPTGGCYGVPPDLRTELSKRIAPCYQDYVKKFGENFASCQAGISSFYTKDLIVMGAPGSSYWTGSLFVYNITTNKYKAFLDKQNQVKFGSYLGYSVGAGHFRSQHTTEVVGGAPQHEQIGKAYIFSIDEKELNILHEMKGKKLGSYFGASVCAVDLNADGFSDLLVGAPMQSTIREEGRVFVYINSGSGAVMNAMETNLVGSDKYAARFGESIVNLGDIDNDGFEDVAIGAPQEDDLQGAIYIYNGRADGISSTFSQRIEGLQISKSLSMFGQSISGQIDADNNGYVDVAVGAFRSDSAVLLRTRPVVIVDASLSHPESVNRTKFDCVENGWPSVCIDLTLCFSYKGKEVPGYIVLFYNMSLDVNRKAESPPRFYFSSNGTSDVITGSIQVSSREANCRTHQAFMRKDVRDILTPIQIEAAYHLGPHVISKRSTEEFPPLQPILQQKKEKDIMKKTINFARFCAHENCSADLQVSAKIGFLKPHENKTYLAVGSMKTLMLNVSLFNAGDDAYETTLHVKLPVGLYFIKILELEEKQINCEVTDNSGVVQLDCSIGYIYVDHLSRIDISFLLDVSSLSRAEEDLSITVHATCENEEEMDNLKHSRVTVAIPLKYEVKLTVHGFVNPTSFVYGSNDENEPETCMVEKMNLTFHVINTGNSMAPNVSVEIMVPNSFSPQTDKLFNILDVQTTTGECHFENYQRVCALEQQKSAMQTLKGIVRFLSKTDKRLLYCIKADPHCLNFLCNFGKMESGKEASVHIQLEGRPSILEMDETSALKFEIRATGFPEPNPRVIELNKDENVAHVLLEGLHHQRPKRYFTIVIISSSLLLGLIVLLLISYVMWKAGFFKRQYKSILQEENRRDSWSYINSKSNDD
T2 sequence (P26010 whole entry): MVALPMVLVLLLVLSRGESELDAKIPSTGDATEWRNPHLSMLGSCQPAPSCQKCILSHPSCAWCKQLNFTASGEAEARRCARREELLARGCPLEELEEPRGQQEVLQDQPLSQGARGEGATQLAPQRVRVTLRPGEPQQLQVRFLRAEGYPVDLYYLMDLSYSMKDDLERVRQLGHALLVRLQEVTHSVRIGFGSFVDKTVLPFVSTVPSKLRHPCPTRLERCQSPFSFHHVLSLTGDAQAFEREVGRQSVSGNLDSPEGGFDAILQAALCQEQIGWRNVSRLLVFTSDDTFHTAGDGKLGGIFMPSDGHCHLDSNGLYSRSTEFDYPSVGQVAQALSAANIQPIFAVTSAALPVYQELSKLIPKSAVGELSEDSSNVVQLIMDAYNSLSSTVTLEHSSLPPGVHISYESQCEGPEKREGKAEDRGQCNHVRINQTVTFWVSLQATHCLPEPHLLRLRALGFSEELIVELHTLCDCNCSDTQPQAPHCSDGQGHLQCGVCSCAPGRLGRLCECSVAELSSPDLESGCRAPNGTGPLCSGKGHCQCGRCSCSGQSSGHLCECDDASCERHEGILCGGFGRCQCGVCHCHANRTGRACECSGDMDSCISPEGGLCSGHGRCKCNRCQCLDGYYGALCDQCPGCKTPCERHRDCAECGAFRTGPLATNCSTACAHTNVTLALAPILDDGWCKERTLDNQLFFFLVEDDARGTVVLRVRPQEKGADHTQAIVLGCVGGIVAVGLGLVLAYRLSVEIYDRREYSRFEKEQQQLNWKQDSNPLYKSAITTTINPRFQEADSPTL

[5] = Inhibition of fluorescent Ramos cell adhesion to vitronectin by alpha-V-beta-3-alphaV/beta-5 integrins; type: functional, cell-based, Homo sapiens
[6] = molecular target: Integrin alpha-4/beta-1, Rattus norvegicus; assay: Inhibition of fluorescent Ramos cell adhesion to VCAM-1 by rat Very late antigen 4 (VLA-4) integrin
[7] = molecular target: Integrin alpha-4/beta-1, Mus musculus; assay: Inhibition of fluorescent Ramos cell adhesion to VCAM-1 by mouse Very late antigen 4 (VLA-4) integrin
Integrin alpha-4/beta-7 [8] = molecular target: T2, Integrin alpha-4/beta-7; assay: as §1; type: cell-based
[9] = molecular target: Integrin alpha-4/beta-1, Mus musculus; assay: Inhibition of fluorescent Ramos cell adhesion to VCAM-1 by mouse Very late antigen 4 (VLA-4) integrin; remark: listed apart in the source

Structure (SMILES): C/C=C/[C@@H](CC(=O)O)NC(=O)C[C@@H](CC(C)C)NC(=O)Cc1ccc(NC(=O)Nc2ccccc2C)cc1
IC50 (Integrin alpha-4/beta-1 [1]): 103000 nM

Structure (SMILES): Cc1ccccc1NC(=O)Nc1ccc(CC(=O)N[C@H](CC(=O)N[C@@H](CC(=O)O)c2ccccc2)CC(C)C)cc1
IC50 (Integrin alpha-4/beta-1 [1]): 7300 nM

Structure (SMILES): Cc1ccccc1NC(=O)Nc1ccc(CC(=O)N[C@@H](CC(C)C)C(=O)N[C@@H](CC(=O)O)c2ccc3c(c2)OCO3)cc1
IC50 (Integrin alpha-4/beta-1 [1]): 3 nM

Structure (SMILES): Cc1ccccc1NC(=O)Nc1ccc(CC(=O)N(CCC(C)C)CC(=O)N(CCC(=O)O)CCc2ccccc2)cc1
IC50 (Integrin alpha-4/beta-1 [1]): 98 nM

Structure (SMILES): Cc1ccccc1NC(=O)Nc1ccc(CC(=O)N[C@@H](CC(=O)N[C@@H](CC(=O)O)c2ccccc2)CC(C)C)cc1
IC50 (Integrin alpha-4/beta-1 [1]): 262000 nM

Structure (SMILES): C=CCN(CC(=O)O)NC(=O)[C@@H](CC(C)C)NC(=O)Cc1ccc(NC(=O)Nc2ccccc2C)cc1
IC50 (Integrin alpha-4/beta-1 [1]): 11000 nM

Structure (SMILES): Cc1ccccc1NC(=O)Nc1ccc(CC(=O)N[C@H](CC(C)C)C(=O)N(CCC(=O)O)CCc2ccccc2)cc1
IC50 (Integrin alpha-4/beta-1 [1]): 37000 nM

Structure (SMILES): C=CC[C@H](CC(=O)O)NC(=O)[C@H](CC(C)C)NC(=O)Cc1ccc(NC(=O)Nc2ccccc2C)cc1
IC50 (Integrin alpha-4/beta-1 [1]): 16.5 nM

Structure (SMILES): C/C=C/[C@H](CC(=O)O)NC(=O)CN(CCC(C)C)C(=O)Cc1ccc(NC(=O)Nc2ccccc2C)cc1
IC50 (Integrin alpha-4/beta-1 [1]): 45 nM

Structure (SMILES): Cc1ccccc1NC(=O)Nc1ccc(CC(=O)N(CCC(C)C)CC(=O)N[C@@H](CC(=O)O)c2ccccc2)cc1
IC50 (Integrin alpha-4/beta-1 [1]): 29 nM

Structure (SMILES): C/C=C/[C@H](CC(=O)O)NC(=O)CN(CCCOC)C(=O)Cc1ccc(NC(=O)Nc2ccccc2C)cc1
IC50 [2]: > 500000 nM | IC50 (Integrin alpha-5/beta-1): > 500000 nM | IC50 (Integrin alpha-4/beta-1 [3]): 7.9 nM | IC50 (Integrin alpha-4/beta-1 [1]): 15.4 nM | IC50 (Integrin alpha-4/beta-7 [4]): > 100000 nM | IC50 [5]: 59000 nM | IC50 [6]: 20.5 nM | IC50 [9]: 7.7 nM

Structure (SMILES): Cc1ccccc1NC(=O)Nc1ccc(CC(=O)NN(CC(C)C)C(=O)NC(CC(=O)O)c2ccccc2)cc1 (centres undefined)
IC50 (Integrin alpha-4/beta-1 [1]): 2900 nM

Structure (SMILES): Cc1ccccc1NC(=O)Nc1ccc(CC(=O)N[C@H](CC(=O)N(CC(=O)O)Cc2ccccc2)CC(C)C)cc1
IC50 (Integrin alpha-4/beta-1 [1]): 247000 nM

Structure (SMILES): C=CCC(CC(=O)O)NC(=O)N(CC(C)C)NC(=O)Cc1ccc(NC(=O)Nc2ccccc2C)cc1 (centres undefined)
IC50 (Integrin alpha-4/beta-1 [1]): 5900 nM

Structure (SMILES): Cc1ccccc1NC(=O)Nc1ccc(CC(=O)N[C@H](CC(=O)N[C@@H](C(=O)O)c2ccccc2)CC(C)C)cc1
IC50 (Integrin alpha-4/beta-1 [1]): 6400 nM

Next, values leading:

IC50 [2]: > 500000 nM | IC50 (Integrin alpha-5/beta-1): > 500000 nM | IC50 (Integrin alpha-4/beta-1 [3]): 14.4 nM | IC50 (Integrin alpha-4/beta-1 [1]): 11.7 nM | IC50 (Integrin alpha-4/beta-7 [4]): > 100000 nM | IC50 [5]: > 100000 nM | IC50 [6]: 24.5 nM | IC50 [7]: 21.7 nM
Structure (SMILES): COCCCN(CC(=O)N[C@@H](CC(=O)O)c1ccccc1)C(=O)Cc1ccc(NC(=O)Nc2ccccc2C)cc1

IC50 (Integrin alpha-4/beta-1 [1]): 75000 nM
Structure (SMILES): CCOC(=O)C[C@H](NC(=O)CN(CCCOC)C(=O)Cc1ccc(NC(=O)Nc2ccccc2C)cc1)c1ccc(OC)cc1

IC50 [2]: > 500000 nM | IC50 (Integrin alpha-5/beta-1): > 500000 nM | IC50 (Integrin alpha-4/beta-1 [3]): 13.4 nM | IC50 (Integrin alpha-4/beta-1 [1]): 7.1 nM | IC50 (Integrin alpha-4/beta-7 [4]): > 100000 nM | IC50 [5]: > 100000 nM | IC50 [6]: 21.6 nM | IC50 [7]: 27.3 nM
Structure (SMILES): COCCCN(CC(=O)N[C@@H](CC(=O)O)c1ccc(OC)c(OC)c1)C(=O)Cc1ccc(NC(=O)Nc2ccccc2C)cc1

IC50 (Integrin alpha-4/beta-1 [1]): 20 nM
Structure (SMILES): COc1ccc([C@H](CC(=O)O)NC(=O)CN(CCC(C)C)C(=O)Cc2ccc(NC(=O)Nc3ccccc3C)cc2)cc1OC

IC50 [2]: > 500000 nM | IC50 (Integrin alpha-5/beta-1): > 500000 nM | IC50 (Integrin alpha-4/beta-1 [3]): 36 nM | IC50 (Integrin alpha-4/beta-1 [1]): 4.7 nM | IC50 (Integrin alpha-4/beta-7 [8]): 6140 nM | IC50 [5]: > 100000 nM | IC50 [6]: 27.2 nM | IC50 [7]: 51.9 nM
Structure (SMILES): COCCCN(CC(=O)N[C@@H](CC(=O)O)c1ccc(OC)cc1)C(=O)Cc1ccc(NC(=O)Nc2ccccc2C)cc1

IC50 (Integrin alpha-4/beta-1 [1]): 1.3 nM
Structure (SMILES): COCCCCN(CC(=O)N[C@@H](CC(=O)O)c1ccc(OC)c(OC)c1)C(=O)Cc1ccc(NC(=O)Nc2ccccc2C)cc1
